Several values for one entry are separate records, joined by “and”; a condition that tells them apart may be missing. Equal entries are not always repeated. Toxic doses and inconclusive results are not listed. No stated cut-off is given here; in the data, active means T/C of 150% or more; inactive means T/C below 125%.
Tested on: L1210 leukemia ip in BDF1 mice, survival T/C
Assay: NCI In Vivo Anticancer Drug Screen. Data for tumor model L1210 Leukemia (intraperitoneal) in B6D2F1 (BDF1) mice
Conditions: endpoint: mean survival time, higher = longer survival
Method in brief: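 Tumor was transplanted into mice, which were then dosed with test compound or vehicle alone. Survival was recorded for each group, and the treated figure was expressed relative to the control figure.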

[1] = dose: 50.0 mg/kg/injection, schedule: Q01DX009 (ip), vehicle: saline with Tween-80
[2] = dose: 100.0 mg/kg/injection, schedule: Q01DX009 (ip), vehicle: saline with Tween-80
[3] = dose: 200.0 mg/kg/injection, schedule: Q01DX009 (ip), vehicle: saline with Tween-80
[4] = dose: 100.0 mg/kg/injection, schedule: Q01DX009 (ip), vehicle: Klucel (hydroxypropylcellulose) (HPC)
[5] = dose: 200.0 mg/kg/injection, schedule: Q01DX009 (ip), vehicle: Klucel (hydroxypropylcellulose) (HPC)
[6] = dose: 400.0 mg/kg/injection, schedule: Q01DX009 (ip), vehicle: Klucel (hydroxypropylcellulose) (HPC)
[7] = dose: 100.0 mg/kg/injection, schedule: Q04DX003 (ip), vehicle: saline with Tween-80
[8] = dose: 200.0 mg/kg/injection, schedule: Q04DX003 (ip), vehicle: saline with Tween-80
[9] = dose: 400.0 mg/kg/injection, schedule: Q04DX003 (ip), vehicle: saline with Tween-80
[10] = dose: 25.0 mg/kg/injection, schedule: Q04DX003 (ip), vehicle: saline
[11] = dose: 200.0 mg/kg/injection, schedule: Q01DX001 (ip), vehicle: carboxymethylcellulose (CMC)
[12] = dose: 400.0 mg/kg/injection, schedule: Q01DX001 (ip), vehicle: carboxymethylcellulose (CMC)
[13] = dose: 100.0 mg/kg/injection, schedule: Q01DX001 (ip), vehicle: saline
[14] = dose: 200.0 mg/kg/injection, schedule: Q01DX001 (ip), vehicle: saline
[15] = dose: 400.0 mg/kg/injection, schedule: Q01DX001 (ip), vehicle: saline
[16] = dose: 25.0 mg/kg/injection, schedule: Q01DX009 (ip), vehicle: saline
[17] = dose: 50.0 mg/kg/injection, schedule: Q01DX009 (ip), vehicle: saline
[18] = dose: 50.0 mg/kg/injection, schedule: Q04DX003 (ip), vehicle: saline
[19] = dose: 100.0 mg/kg/injection, schedule: Q01DX009 (ip), vehicle: saline
[20] = dose: 100.0 mg/kg/injection, schedule: Q04DX003 (ip), vehicle: saline
[21] = dose: 100.0 mg/kg/injection, schedule: Q04DX003 (ip), vehicle: Klucel (hydroxypropylcellulose) (HPC)
[22] = dose: 200.0 mg/kg/injection, schedule: Q04DX003 (ip), vehicle: Klucel (hydroxypropylcellulose) (HPC)
[23] = dose: 25.0 mg/kg/injection, schedule: Q01DX009 (ip), vehicle: Klucel (hydroxypropylcellulose) (HPC)
[24] = dose: 50.0 mg/kg/injection, schedule: Q01DX009 (ip), vehicle: Klucel (hydroxypropylcellulose) (HPC)
[25] = dose: 100.0 mg/kg/injection, schedule: Q04DX002 (ip), vehicle: saline with Tween-80
[26] = dose: 200.0 mg/kg/injection, schedule: Q04DX002 (ip), vehicle: saline with Tween-80
[27] = dose: 400.0 mg/kg/injection, schedule: Q04DX002 (ip), vehicle: saline with Tween-80

Measured: T/C

CCCOCCOCCOC(C)Oc1ccccc1OC (stereo not given)
inactive: dose: 100.0 mg/kg/injection, schedule: Q04DX002 (ip), vehicle: saline 92 % of control | dose: 200.0 mg/kg/injection, schedule: Q04DX002 (ip), vehicle: saline 88 % of control | dose: 400.0 mg/kg/injection, schedule: Q04DX002 (ip), vehicle: saline 95 % of control

COCC(COC)CC1CO1 (stereo not given)
inactive: [1] 96 % of control | [2] 100 % of control | [3] 96 % of control

O=C(O)c1ccc2c(c1)OCO2
inactive: [4] 97 % of control | [5] 92 % of control | [6] 99 % of control

CCCCN(CCCC)P(=S)(OCC)OCC
inactive: [7] 100 % of control | [8] 102 % of control | [9] 104 % of control

O=C(N/N=C/c1ccc(Cl)cc1)C(O)c1ccccc1 (stereo not given)
inactive: [4] 87 % of control | [5] 87 % of control | [6] 89 % of control

C/[N+]([O-])=N\Nc1c(Cl)cc(Cl)cc1Cl
inactive: [1] 94 % of control | [2] 105 % of control | [3] 102 % of control

CCCCCCCCCCNC(=O)C[n+]1cccc(C(=O)Nc2ccccc2)c1
inactive: dose: 3.12 mg/kg/injection, schedule: Q01DX009 (ip), vehicle: saline with Tween-80 100 % of control | dose: 6.25 mg/kg/injection, schedule: Q01DX009 (ip), vehicle: saline with Tween-80 105 % of control | dose: 12.5 mg/kg/injection, schedule: Q01DX009 (ip), vehicle: saline with Tween-80 88 % of control | dose: 12.5 mg/kg/injection, schedule: Q04DX003 (ip), vehicle: saline 103 % of control | [10] 88 % of control

Cc1ccc(S(=O)(=O)Nc2cc(C)ccc2C)cc1
inactive: dose: 50.0 mg/kg/injection, schedule: Q01DX001 (ip), vehicle: carboxymethylcellulose (CMC) 93 % of control | dose: 100.0 mg/kg/injection, schedule: Q01DX001 (ip), vehicle: carboxymethylcellulose (CMC) 95 % of control | [11] 104 % of control | [12] 88 % of control

COc1ccc(OC)c2c(=O)cc(C)[nH]c12
inactive: [13] 100 % of control | [14] 92 % of control | [15] 102 % of control

COc1cccc(C(=O)O)c1C(=O)c1ccc(C)cc1O
inactive: [7] 100 % of control | [8] 97 % of control | [9] 90 % of control

c1ccc(-c2cnsc2)cc1
inactive: [11] 95 % of control | [12] 100 % of control

S=C(n1ccnc1)n1ccnc1
inactive: [16] 100 % of control | [10] 106 % of control | [17] 95 % of control | [18] 105 % of control | [19] 103 % of control | [20] 103 % of control | dose: 150.0 mg/kg/injection, schedule: Q01DX009 (ip), vehicle: saline 94 % of control | dose: 225.0 mg/kg/injection, schedule: Q01DX009 (ip), vehicle: saline 92 % of control

N#CCCSC(=N)N
inactive: [16] 107 % of control | [10] 96 % of control | [17] 118 % of control | [18] 102 % of control | [13] 95 % of control | [19] 103 % of control | [20] 107 % of control

O=S1Oc2ccccc2O1
inactive: dose: 75.0 mg/kg/injection, schedule: Q01DX001 (ip), vehicle: saline 117 % of control | dose: 150.0 mg/kg/injection, schedule: Q01DX001 (ip), vehicle: saline 103 % of control

CCOC(=O)c1ccc(Cn2c(C)cc(=O)n(Cc3ccc(C(=O)OCC)cc3)c2=O)cc1
inactive: dose: 100.0 mg/kg/injection, schedule: Q01DX001 (ip), vehicle: Klucel (hydroxypropylcellulose) (HPC) 102 % of control | dose: 200.0 mg/kg/injection, schedule: Q01DX001 (ip), vehicle: Klucel (hydroxypropylcellulose) (HPC) 94 % of control | dose: 400.0 mg/kg/injection, schedule: Q01DX001 (ip), vehicle: Klucel (hydroxypropylcellulose) (HPC) 91 % of control

CCOC(=O)c1[nH]c(C)c(C)c1-c1ccccc1
inactive: [21] 109 % of control | [22] 94 % of control

CCCCCCCCCCCCCCCC
inactive: dose: 25.0 mg/kg/injection, schedule: Q04DX003 (ip), vehicle: Klucel (hydroxypropylcellulose) (HPC) 96 % of control | dose: 50.0 mg/kg/injection, schedule: Q04DX003 (ip), vehicle: Klucel (hydroxypropylcellulose) (HPC) 94 % of control | [4] 109 % of control | [21] 100 % of control and 104 % of control | [5] 96 % of control | [22] 102 % of control | [6] 89 % of control | dose: 400.0 mg/kg/injection, schedule: Q04DX003 (ip), vehicle: Klucel (hydroxypropylcellulose) (HPC) 97 % of control

Cc1ccc(S(=O)(=O)N/N=C/C(Br)=C(/Br)C(=O)O)cc1
inactive: dose: 6.25 mg/kg/injection, schedule: Q01DX009 (ip), vehicle: Klucel (hydroxypropylcellulose) (HPC) 106 % of control | dose: 12.5 mg/kg/injection, schedule: Q01DX009 (ip), vehicle: Klucel (hydroxypropylcellulose) (HPC) 109 % of control | [23] 111 % of control | [24] 124 % of control

COc1ccc(NC(=S)NC(=O)COc2ccccc2)cc1
inactive: [2] 101 % of control and 107 % of control | [25] 107 % of control and 87 % of control | [3] 102 % of control | [26] 100 % of control and 90 % of control | dose: 400.0 mg/kg/injection, schedule: Q01DX009 (ip), vehicle: saline with Tween-80 89 % of control | [27] 106 % of control

C1CCC2(CC1)CN2
inactive: [16] 103 % of control | [17] 100 % of control | [13] 97 % of control | [19] 104 % of control

CC1C(=O)OC2CC[N+]3(C)CC=C(COC(=O)C(C)(O)C1(C)O)C23 (stereo not given)
inactive: [17] 92 % of control | [19] 100 % of control | dose: 200.0 mg/kg/injection, schedule: Q01DX009 (ip), vehicle: saline 92 % of control

CCCCOc1ccc(/C=N/NC(=O)Nc2ccccc2)cc1
inactive: [23] 95 % of control | [24] 97 % of control | [4] 88 % of control and 90 % of control | [6] 87 % of control

CCOC(=O)c1cc(Cl)ccc1O
inactive: [25] 89 % of control | [26] 92 % of control | [27] 92 % of control

Cc1cccc(C)c1NC(=O)N(CCO)C1CCCCC1
inactive: [20] 102 % of control | dose: 200.0 mg/kg/injection, schedule: Q04DX003 (ip), vehicle: saline 112 % of control | dose: 400.0 mg/kg/injection, schedule: Q04DX003 (ip), vehicle: saline 104 % of control

CC(=O)OCC1OC(OC(C)=O)C(OC(C)=O)C1OC(C)=O (stereo not given)
inactive: [13] 107 % of control | [14] 106 % of control | [15] 102 % of control

Reference: PubChem BioAssay AID248 (DTP/NCI, 2004)
